Patent publication US10973936B2, “18F-saccharide-folates” (MERCK & CIE, priority 2011, dated 2021)

Columns and labels:
[1] = system: KB tumor xenografts; assay: PET imaging of KB tumor xenografts; assay type: in vivo; conditions: for PET images of KB tumor xenografts: 75-105 min p.i.; for specificity of uptake (blocking with folic acid): PET, excess folic acid 10 min prior to radiotracer
Description: PET experiments were performed with Explore VISTA PET/CT tomograph (GE), which provides an ultrahigh resolution of less than 0.9 mm. Animals were lightly restrained and injected with 10-14 MBq of γ-[^18F]-glucose folate (100-150 μL per injection) via a lateral tail vein. […] Animals were anesthetized with isoflurane in an air/oxygen mixture. The PET scans were acquired from 75-105 min post-injection. The fused datasets of PET and CT were analyzed with Amira (Version 4) postprocessing software.

[2] = assay type: physicochemical; conditions: pH 7.4
Description: The distribution coefficient (log D7.4) was determined by the shake flask method. In brief, γ-[^18F]-glucose folate was dissolved in a mixture of phosphate buffer (500 μL, pH 7.4) and n-octanol ([…]) at 20° C. The sample was equilibrated for 15 min in an over-head shaker. The two phases were separated by centrifugation (3 min, 5000 rpm) and 50 μL aliquots were taken from each layer and counted for radioactivity in a γ-counter. The partition coefficient is expressed as the ratio of radioactivity (cpm) in the octanol phase to the one in the PBS phase represents the mean±standard deviation of eight measurements.

[3] = biological target: T1, folate receptor (Homo sapiens, UniProt P15328); assay: In vitro binding affinity assay, displacement of 3H-folic acid on KB cells; conditions: 3H-folic acid 0.82 nM, 4° C., 30 min; for IC50: three independent experiments, read-out: mean inhibitory concentration of 50% (IC50 value)
T1 construct: endogenous in cells; host or cells: KB cells (human cervical carcinoma), whole-cell suspension
T1 sequence (P15328 25-234): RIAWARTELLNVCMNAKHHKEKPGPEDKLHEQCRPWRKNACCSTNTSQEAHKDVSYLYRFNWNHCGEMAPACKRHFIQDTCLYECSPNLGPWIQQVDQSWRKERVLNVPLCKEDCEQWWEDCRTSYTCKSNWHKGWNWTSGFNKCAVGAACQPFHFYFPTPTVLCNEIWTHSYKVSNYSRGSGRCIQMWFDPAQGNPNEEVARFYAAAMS
Description: Binding affinity assays were performed with KB cells derived from human cervical carcinoma, where the folate receptor is overexpressed. The cells were cultured as monolayers in 75 cm^2 flasks at 37° C. in a humidified atmosphere (7.5% CO2). The cells were kept in a special folate-deficient RPMI 1640 medium (FFRPMI 1640; Cell Culture Technologies) supplemented with heat-inactivated fetal calf serum (10%), L-glutamine, penicillin (100 IU/mL), and streptomycin ([…]). The fetal calf serum was the only source of folate in the medium, which is reported to provide a final folate concentration of about 3 nmol/mL, which is at the low end of the physiologic serum concentration in humans.
A cell suspension in pure FFRPMI 1640 medium (no additives, ice-cold) was added into 1.5 mL vials (7000 cells in 240 μL). […] After incubation, the suspension was centrifuged at 3500 rpm and 4° C. for 5 min and the supernatant was removed. By addition of 0.5 mL of 1 N NaOH, the cell pellets were resuspended and lysed at the same time. The lysed cells were stirred in a vortex mixer and transferred into scintillation tubes containing 4 mL of scintillation cocktail (Ultima Gold; Perkin Elmer). Radioactivity was measured using a β-counter (LS6500; Beckman), and the inhibitory concentrations of 50% were determined from displacement curves using Graph Pad Prism 4.0 software.

| Structure (SMILES) | PET images of KB tumor xenografts [1] | specificity of uptake (blocking with folic acid) [1] | log D7.4 [2] | Ki [3] | IC50 [3] |
| --- | --- | --- | --- | --- | --- |
| Nc1nc2ncc(CNc3ccc(C(=O)NC(CCC(=O)NC(Cc4cn(C5OC(CO)C(O)C(O)C5[18F])nn4)C(=O)O)C(=O)O)cc3)nc2c(=O)[nH]1 (stereo not shown) [γ-[^18F]-glucose folate] | excellent images of KB tumor xenografts | highly specific and blocked by natural folic acid | −4.21±0.14 | – | – |
| Nc1nc2ncc(CNc3ccc(C(=O)NC(CCC(=O)O)C(=O)NC(Cc4cn(C5OC(CO)C(O)C(O)C5F)nn4)C(=O)O)cc3)nc2c(=O)[nH]1 (stereo not drawn) [α-glucose folate, α-[^19F]-Glucose Folate] | – | – | – | 0.7 ± 0.2 nM | 1.4 ± 0.2 nM |
| Nc1nc2ncc(CNc3ccc(C(=O)NC(CCC(=O)NC(Cc4cn(C5OC(CO)C(O)C(O)C5F)nn4)C(=O)O)C(=O)O)cc3)nc2c(=O)[nH]1 (stereo not shown) [γ-glucose folate, γ-[^19F]-Glucose Folate] | – | – | – | 0.8 ± 0.1 nM | 1.6 ± 0.1 nM |
| Nc1nc2ncc(CNc3ccc(C(=O)NC(CCC(=O)O)C(=O)NC(Cc4cn(C5OC(CO)C(O)C(O)C5[18F])nn4)C(=O)O)cc3)nc2c(=O)[nH]1 (stereo not drawn) [α-[^18F]-glucose folate] | excellent images of KB tumor xenografts | highly specific and blocked by natural folic acid | −4.20±0.06 | – | – |
